One assay deals with hNAMPT protein (Homo sapiens (Human), UniProt P43490). As to the kind of experiment: NAMPT enzyme assay (TR-FRET/HTRF, BodiPY ligand, anti 6His-Tb). The format is binding. The note with it: for inhibition at 1 µM: NAMPT inhibition at compound concentration 1 μM, read-out: Percent Inhibition; for IC50: NAMPT inhibition, IC50 range class, read-out: IC50. An outline of the steps: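 Compound or DMSO was incubated for 1 h at room temperature, protected from light, with BodiPY ligand and hNAMPT labelled by terbium anti-6His antibody. The 520 nm to 486 nm emission ratio after 320 nm excitation gave inhibition versus vehicle, from which concentration-response curves yielded IC50.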
Sequence of hNAMPT protein (P43490 whole entry): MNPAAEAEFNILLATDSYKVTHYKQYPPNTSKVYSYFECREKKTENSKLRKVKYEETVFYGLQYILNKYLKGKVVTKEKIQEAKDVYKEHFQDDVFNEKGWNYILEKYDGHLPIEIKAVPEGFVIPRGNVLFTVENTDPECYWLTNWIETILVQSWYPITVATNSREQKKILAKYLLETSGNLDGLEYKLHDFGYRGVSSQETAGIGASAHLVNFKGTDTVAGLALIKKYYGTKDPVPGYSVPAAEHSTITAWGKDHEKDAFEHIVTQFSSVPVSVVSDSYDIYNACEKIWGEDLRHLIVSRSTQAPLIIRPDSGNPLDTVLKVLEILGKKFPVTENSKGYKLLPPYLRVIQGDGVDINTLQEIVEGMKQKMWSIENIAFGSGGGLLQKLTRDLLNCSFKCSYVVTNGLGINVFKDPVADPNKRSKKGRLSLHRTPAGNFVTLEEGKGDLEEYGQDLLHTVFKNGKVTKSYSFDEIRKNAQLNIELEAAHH
In general terms: In TR-FRET formats the signal depends on donor and acceptor labels being close together.

The subject of a further assay is PC3 cells. Kind of assay: PC3 growth inhibition (Cell-titer glo, 72 hours). The conditions noted are these: Homo sapiens, PC-3; compound concentration 1.667 μM; PC3 cells, 72 hours, Cell-titer glo; read-out: Percent Inhibition (PC3 growth inhibition). The format is cell-based. The method in brief: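 Compounds in AIM serum-free medium were applied for 72 h at 37 °C, 5% CO2 to PC3 cells plated overnight from RPMI1640 culture. Luminescence after 10 min CellTiter-Glo, normalised to DMSO, gave % viability at 1 μM or 1.667 μM, or GI50/LD50.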

On to `CC(C)Oc1nc2ccc(C(=O)NCCCc3ncc[nH]3)cc2nc1-c1cc(C#N)ccc1F` [Compound I-414, 3-(5-cyano-2-fluorophenyl)-N-[3-(1H-imidazol-2-yl)propyl]-2-isopropoxyquinoxaline-6-carboxamide], for which, at hNAMPT protein, the inhibition at 1 µM amounted to 95% and the IC50 is under 100 nM. For the same compound, the inhibition at 1.667 µM with PC3 cells is 1%.

As for `COc1ccc(-c2nc3cc(C(=O)NCCCc4ncc[nH]4)ccc3nc2-c2ccc(F)cc2)c(F)c1` [Compound I-415, 3-(2-fluoro-4-methoxyphenyl)-2-(4-fluorophenyl)-N-[3-(1H-imidazol-2-yl)propyl]quinoxaline-6-carboxamide], on hNAMPT protein, the inhibition at 1 µM turned out to be 75% and the IC50 fell in the range of 100 to 500 nM. Also, the inhibition at 1.667 µM with PC3 cells is 2%.

For `C#Cc1ccc(-c2nc3cc(C(=O)NCCCc4ncc[nH]4)ccc3nc2-c2ccc(F)cc2)cc1` [Compound I-416, 3-(4-ethynylphenyl)-2-(4-fluorophenyl)-N-[3-(1H-imidazol-2-yl)propyl]quinoxaline-6-carboxamide], on hNAMPT protein, the inhibition at 1 µM was 76% and the IC50 lay within 100 to 500 nM. Moreover, the inhibition at 1.667 µM in the assay with PC3 cells came out at 2%.

With `O=C(NCCCc1ncc[nH]1)c1ccc2nc(-c3ccc(F)cc3)c(-c3ccc4nccn4c3)nc2c1` [Compound I-417, 2-(4-fluorophenyl)-N-[3-(1H-imidazol-2-yl)propyl]-3-(imidazo[1,2-a]pyridin-6-yl)quinoxaline-6-carboxamide], at hNAMPT protein, the inhibition at 1 µM was determined as 81% and the IC50 fell in the range of 100 to 500 nM. In addition, the inhibition at 1.667 µM with PC3 cells was found to be 2%.

Consider `O=C(NCCCc1ncc[nH]1)c1ccc2nc(-n3cncn3)c(-c3ccc(F)cc3)nc2c1` [Compound I-418], for which, at hNAMPT protein, the inhibition at 1 µM worked out at 60% and the IC50 was in the range of 500 to 1000 nM. The inhibition at 1.667 µM with PC3 cells worked out at 3%.

Consider `Nc1ccc(CCCNC(=O)c2ccc3nc(-c4ccc(F)cc4)c(-c4ccc(F)cc4)nc3c2)cn1` [Compound I-419, N-[3-(6-aminopyridin-3-yl)propyl]-2,3-bis(4-fluorophenyl)quinoxaline-6-carboxamide], for which, on hNAMPT protein, the inhibition at 1 µM turned out to be 52% and the IC50 lay in the range of 500 to 1000 nM. Further, the inhibition at 1.667 µM with PC3 cells came out at 3%.

In the case of `O=C(NCCCc1ncc[nH]1)c1ccc2nc(OCCc3ccccc3)c(-c3ccc(F)cc3)nc2c1` [Compound I-420, 3-(4-fluorophenyl)-N-[3-(1H-imidazol-2-yl)propyl]-2-(2-phenylethoxy)quinoxaline-6-carboxamide], at hNAMPT protein, the inhibition at 1 µM was found to be 97% and the IC50 is under 100 nM. Further, the inhibition at 1.667 µM with PC3 cells stood at 2%.

Regarding `CC(C)Oc1nc2ccc(C(=O)NCCCc3ncc[nH]3)cc2nc1-c1cccc(SC(F)(F)F)c1` [Compound I-421, N-[3-(1H-imidazol-2-yl)propyl]-2-isopropoxy-3-{3-[(trifluoromethyl)sulfanyl]phenyl}quinoxaline-6-carboxamide], at hNAMPT protein, the inhibition at 1 µM was found to be 78% and the IC50 fell in the range of 100 to 500 nM. Further, in the assay on PC3 cells, the inhibition at 1.667 µM stood at 1%.

Take `Cc1cc(-c2nc3cc(C(=O)NCCCc4ncc[nH]4)ccc3nc2-c2ccc(F)cc2)c(C)s1` [Compound I-422, 3-(2,5-dimethyl-3-thienyl)-2-(4-fluorophenyl)-N-[3-(1H-imidazol-2-yl)propyl]quinoxaline-6-carboxamide]: at hNAMPT protein, the inhibition at 1 µM is 92% and the IC50 is under 100 nM. In the assay on PC3 cells, the inhibition at 1.667 µM worked out at 3%.

With `CN1CCCC(Oc2nc3ccc(C(=O)NCCCc4ncc[nH]4)cc3nc2-c2ccc(F)cc2)C1` (stereo not drawn) [Compound I-423, 3-(4-fluorophenyl)-N-[3-(1H-imidazol-2-yl)propyl]-2-[(1-methylpiperidin-3-yl)oxy]quinoxaline-6-carboxamide], on hNAMPT protein, the inhibition at 1 µM is 88% and the IC50 lay in the range of 100 to 500 nM. The inhibition at 1.667 µM in the assay with PC3 cells stood at 2%.

For the compound `CC(C)Oc1nc2ccc(C(=O)NCCc3cncn3C)cc2nc1-c1ccc(F)cc1` [Compound I-424, 3-(4-fluorophenyl)-2-isopropoxy-N-[2-(1-methyl-1H-imidazol-5-yl)ethyl]quinoxaline-6-carboxamide], at hNAMPT protein, the inhibition at 1 µM came to 76% and the IC50 was 100 to 500 nM. Moreover, in the assay with PC3 cells, the inhibition at 1.667 µM was found to be 1%.

With `C#Cc1cccc(-c2nc3cc(C(=O)NCCCc4ncc[nH]4)ccc3nc2-c2ccc(F)cc2)c1` [Compound I-425, 3-(3-ethynylphenyl)-2-(4-fluorophenyl)-N-[3-(1H-imidazol-2-yl)propyl]quinoxaline-6-carboxamide], at hNAMPT protein, the inhibition at 1 µM worked out at 87% and the IC50 is 100 to 500 nM. Also, the inhibition at 1.667 µM in the assay on PC3 cells worked out at 3%.

Consider `COc1cc(-c2nc3cc(C(=O)NCc4ccc5nccn5c4)ccc3nc2OC(C)C)ccc1F` [Compound I-426, 3-(4-fluoro-3-methoxyphenyl)-N-(imidazo[1,2-a]pyridin-6-ylmethyl)-2-isopropoxyquinoxaline-6-carboxamide], for which, at hNAMPT protein, the inhibition at 1 µM was found to be 99% and the half-inhibitory concentration (IC50) was under 100 nM. Also, the inhibition at 1.667 µM with PC3 cells was determined as 0%.

`COC1CC(Oc2nc3ccc(C(=O)NCCCc4ncc[nH]4)cc3nc2-c2ccc(F)cc2)C1` (stereo not drawn) [Compound I-427, 3-(4-fluorophenyl)-N-[3-(1H-imidazol-2-yl)propyl]-2-[(3-methoxycyclobutyl)oxy]quinoxaline-6-carboxamide]: at hNAMPT protein, the inhibition at 1 µM turned out to be 99% and the IC50 is under 100 nM. Further, the inhibition at 1.667 µM in the assay on PC3 cells was found to be 2%.

With `Cc1cc(C)n(-c2nc3ccc(C(=O)NCCCc4ncc[nH]4)cc3nc2-c2ccc(F)cc2)n1` [Compound I-428, 2-(3,5-dimethyl-1H-pyrazol-1-yl)-3-(4-fluorophenyl)-N-[3-(1H-imidazol-2-yl)propyl]quinoxaline-6-carboxamide], at hNAMPT protein, the inhibition at 1 µM turned out to be 71% and the IC50 lay within 100 to 500 nM. For the same compound, the inhibition at 1.667 µM in the assay with PC3 cells turned out to be 2%.

As for `O=C(NCCCc1ncc[nH]1)c1ccc2nc(-c3ccc(F)cc3)c(-c3cn[nH]c3)nc2c1` [Compound I-429, 2-(4-fluorophenyl)-N-[3-(1H-imidazol-2-yl)propyl]-3-(1H-pyrazol-4-yl)quinoxaline-6-carboxamide], on hNAMPT protein, the inhibition at 1 µM was 90% and the IC50 lay within 100 to 500 nM. Moreover, the inhibition at 1.667 µM in the assay on PC3 cells was found to be 76%.

For the compound `O=C(NCCCc1ncc[nH]1)c1ccc2nc(OC3CCCNC3)c(-c3ccc(F)cc3)nc2c1` (stereo not drawn) [Compound I-430, 3-(4-fluorophenyl)-N-[3-(1H-imidazol-2-yl)propyl]-2-(piperidin-3-yloxy)quinoxaline-6-carboxamide], on hNAMPT protein, the inhibition at 1 µM turned out to be 98% and the IC50 was under 100 nM. For the same compound, the inhibition at 1.667 µM with PC3 cells was found to be 3%.

With `O=C(NCCCc1ncc[nH]1)c1ccc2nc(-c3ccc(F)cc3)c(-c3ccc(Cl)c(F)c3)nc2c1` [Compound I-431, 3-(4-chloro-3-fluorophenyl)-2-(4-fluorophenyl)-N-[3-(1H-imidazol-2-yl)propyl]quinoxaline-6-carboxamide], on hNAMPT protein, the inhibition at 1 µM was found to be 90% and the IC50 was 100 to 500 nM. Moreover, the inhibition at 1.667 µM in the assay on PC3 cells was found to be 2%.

`O=C(NCCCc1ncc[nH]1)c1ccc2nc(-c3ccc(F)cc3)c(-c3cc(OC(F)(F)F)ccc3Cl)nc2c1` [Compound I-432, 3-[2-chloro-5-(trifluoromethoxy)phenyl]-2-(4-fluorophenyl)-N-[3-(1H-imidazol-2-yl)propyl]quinoxaline-6-carboxamide]: on hNAMPT protein, the inhibition at 1 µM is 79% and the IC50 was in the range of 100 to 500 nM. The inhibition at 1.667 µM with PC3 cells is 2%.

In the case of `Cc1ccc(-c2nc3cc(C(=O)NCCCc4ncc[nH]4)ccc3nc2-c2ccc(F)cc2)cc1C` [Compound I-433, 3-(3,4-dimethylphenyl)-2-(4-fluorophenyl)-N-[3-(1H-imidazol-2-yl)propyl]quinoxaline-6-carboxamide], at hNAMPT protein, the inhibition at 1 µM was 79% and the IC50 lay within 100 to 500 nM. Besides, the inhibition at 1.667 µM with PC3 cells turned out to be 3%.

As to `O=C(NCCCc1ncc[nH]1)c1ccc2nc(-n3cccn3)c(-c3ccc(F)cc3)nc2c1` [Compound I-434, 3-(4-fluorophenyl)-N-[3-(1H-imidazol-2-yl)propyl]-2-(1H-pyrazol-1-yl)quinoxaline-6-carboxamide], at hNAMPT protein, the inhibition at 1 µM came out at 76% and the IC50 was in the range of 100 to 500 nM. Further, the inhibition at 1.667 µM in the assay on PC3 cells was determined as 3%.

Turning to `CC(C)Oc1nc2ccc(C(=O)NCCCc3ncc[nH]3)cc2nc1-c1ccc(F)c(Cl)c1` [Compound I-435, 3-(3-chloro-4-fluorophenyl)-N-[3-(1H-imidazol-2-yl)propyl]-2-isopropoxyquinoxaline-6-carboxamide], at hNAMPT protein, the inhibition at 1 µM was 93% and the IC50 was under 100 nM. In addition, the inhibition at 1.667 µM with PC3 cells was 0%.

`Nc1ccc(CCCNC(=O)c2ccc3nc(N4CCCCC4)c(-c4ccc(F)cc4)nc3c2)cn1` [Compound I-436, N-[3-(6-aminopyridin-3-yl)propyl]-3-(4-fluorophenyl)-2-(piperidin-1-yl)quinoxaline-6-carboxamide]: on hNAMPT protein, the inhibition at 1 µM came out at 83% and the IC50 lay within 100 to 500 nM. The inhibition at 1.667 µM with PC3 cells is 2%.

Consider `CCOc1ccc(Cl)c(-c2nc3cc(C(=O)NCCCc4ncc[nH]4)ccc3nc2-c2ccc(F)cc2)c1` [Compound I-437, 3-(2-chloro-5-ethoxyphenyl)-2-(4-fluorophenyl)-N-[3-(1H-imidazol-2-yl)propyl]quinoxaline-6-carboxamide], for which, on hNAMPT protein, the inhibition at 1 µM came to 71% and the IC50 is 100 to 500 nM. Further, the inhibition at 1.667 µM in the assay with PC3 cells came out at 3%.

A word on the inhibition: it is the change of the read-out against control, counted positive when it falls. A word on the IC50: it is the midpoint of a concentration-inhibition curve.

The values above are taken from US10144742B2 (Millennium Pharmaceuticals, Inc., priority 2014, dated 2018).
